Common to all, as to format: in vivo, mice (C57BL/6J)
Test [1] is described as follows: Test 1 - fat mass and lean mass quantification (EchoMRI), body weight. To be noted: summary statement; data in FIGS. 1 and 2. The protocol:
(§1) A group of 140 mice (C57BL/6J) was divided in four sub-groups, group 1 having twenty mice and groups 2 to 4 having forty mice each. Group 1 was fed for 60 days with a low fat (LF) diet (providing 10% calories from fat). Group 2 was fed for 60 days with a high fat (HF) diet (providing 50% calories from fat). Groups 3 and 4 were fed for 60 days with a high fat diet and with 3 mg/kg/day of HMRlignan™ purified HMR (HF+HMR) or 10 mg/kg/day of a total extract of Picea abies (HF+TEP), respectively.
(§2) Mice were kept in animal cabinets maintained at a temperature of 23° C., with natural light/dark cycles. Before treatments, mice were put 5 days on an low fat diet. Mice were fed by gavage daily for 60 days (groups 3 and 4), whilst control groups (1 and 2) received by gavage the carrier only (corn oil). […]
EchoMRI provides the most precise measurements of whole body composition parameters (total body fat and lean mass), in alive mice without the need of anesthesia or sedation and in less than 1 minute. Alterations in mouse whole body composition were assessed as a result of exposure to modified diets. […]
The EchoMRI-100™ QNMR system was housed in a dedicated area to minimize the entry of disease or contaminants. […] The output information was expressed as lean tissue mass and fat mass in grams. […]

For test [2], the system named is epidydimal adipose tissue. In words: Test 2 - histological examination, average adipocyte area. The protocol:
as §1
(§3) Mice were kept in animal cabinets maintained at a temperature of 23° C., with natural light/dark cycles. Before treatments, mice were put 5 days on an low fat diet. Mice were fed by gavage daily for 60 days (groups 3 and 4), whilst control groups (1 and 2) received by gavage the carrier only (corn oil). The animals were sacrificed by cervical dislocation and the tissues dissected and immediately frozen on dry ice or fixed for histological evaluation.
Fresh epidydimal adipose tissue was fixed in formaldehyde, embedded in paraffin and sliced into 3-μm sections. Sections were stained with hematoxylin, counterstained with eosin, then coverslipped with DPX (BDH, Poole, UK). […]
Average adipocyte area was calculated at ×20 magnification with a dedicated software (Image Pro Plus; Imaging and Computer, Milan). In all samples, at least four different fields of three different tissue sections have been evaluated.

The subject of test [3] is liver tissue. In words: Test 3 - liver steatosis (histology). To be noted: high fat diet, 60 days; HMR 3 mg/kg/day, TEP 10 mg/kg/day; compared with HF group 2 (micro- and macro vesicular steatosis). The protocol: as §1, §3
Fresh liver tissue was fixed in formaldehyde, embedded in paraffin and sliced into 3-μm sections. Sections were stained with hematoxylin, counterstained with eosin, then coverslipped with DPX (BDH, Poole, UK). Images acquisition was obtained by a digital camera (Nikon Digital Camera DMX 1200). A sample image of the four groups was illustrated in FIG. 3.

Test [4] can be described thus: Test 4 - glucose tolerance test. Particulars: summary statement; data in FIG. 4. The protocol: as §1, §3
For glucose tolerance tests animals were fasted overnight for 12 hours and blood sample were obtained from the tail vein. […] The glucose concentration was evaluated with standard method (Benjamin B. Whiddon and Richard D. Palmiter. Ablation of Neurons Expressing Melanin-Concentrating Hormone (MCH) in Adult Mice Improves Glucose Tolerance Independent of MCH Signaling. J Neurosci. 2013 Jan. 30; 33(5): 2009-2016).

Test [5] can be described thus: Test 5 - homeostasis model assessment of insulin resistance (HOMA-IR). To be noted: HOMA Calculator, glucose and insulin after 6 hours of food withdrawal, high fat diet, 60 days. Here is the method: as §1, §3
The homeostatic model assessment of insulin resistance (HOMA-IR) was calculated using glucose and insulin concentrations obtained after 6 hours of food withdrawal, using the HOMA Calculator (Diabetes Trials Unit), the Oxford Centre for Diabetes, Endocrinology and Metabolism: homa.calculator@dtu.ox.ac.uk. Plasma insulin levels were measured with an insulin ELISA kit (Millipore, Mouse Insulin 96 well plate assay; CAT. Nº EZRMI-13K).

Test [6] in a line: Test 6 - lipid profiles in blood. The protocol:
as §1, §3
The concentration in blood of cholesterol (Total), cholesterol HDL (HDL), cholesterol LDL (LDL) and triglycerides (TG) were determined according to standard methods, by using an ILab ARIES analyzer (Instrumentation Laboratory Company, Lexington, Mass., USA) and dedicated reagents kits IL Test (Instrumentation Laboratory Company, Lexington, Mass., USA)

Test [7] relates to IL-6 and TNF-alfa mRNA. In words: Test 7 - inflammatory cytokine mRNA expression. To be noted: summary statement; data in FIGS. 6a-6c. The protocol:
as §1, §2
The expression of inflammatory cytokine mRNA was measured in the epidydimal adipose tissue (IL-6 and TNF-alfa) and liver (IL-6) in the four groups of mice according to standard procedures as follows.
(§4) Total RNA was extracted from 10 to 30 mg of tissue using the RNeasy Lipid Tissue Kit (Qiagen, Maryland, USA) and following the manufacture's instruction. […] Quantitative PCR was performed using Assay on Demand kits based on TaqMan chemistry (Applied Biosystems). […]

The subject of test [8] is ATGL, PLA2g7 and LPL mRNA. In words: Test 8 - regulation of genes of the lipid metabolism (epidydimal adipose tissue). Particulars: summary statement; data in FIGS. 7a-7c. The protocol:
as §1, §3
The expression of ATGL, PLA2g7 and LPL mRNA was measured in the epidydimal adipose tissue of the four groups of mice according to standard procedures as follows.
as §4

In test [9] the test system is PPARg and TFEB mRNA. As to the kind of experiment: Test 9 - regulation of genes of the lipid metabolism (liver). To be noted: summary statement; data in FIGS. 8a, 8b. Here is the method:
as §1, §3
The expression of PPARg and TFEB mRNA was measured in the liver of the four groups of mice according to standard procedures as follows.
as §4

The subject of test [10] is GSTs mRNA; 8OHdG and dGU. In words: Test 10 - oxidative stress (GSTs mRNA, 8OHdG/dGU). Particulars: summary statement; data in FIGS. 9, 10. Here is the method:
as §1
Mice were kept in animal cabinets maintained at a temperature of 23° C., with natural light/dark cycles. Before treatments, mice were put 5 days on an low fat diet. […]
The expression of GSTs mRNA was measured in the four groups of mice according to standard procedures as follows.
as §4
The expression of 8OHdG and dGU […] was measured in the four groups of mice according to standard procedures as follows.
Genomic DNA was isolated with commercial kit PUREGENE (Gentra Systems MN, USA), following the manufacturer's instructions, and then quantified using Nanodrop spectrophotometer (Thermo Scientific, DE, USA). […]

For test [11], the system named is hepcidin, ferritin and ferroportin. In words: Test 11 - iron metabolism. Particulars: summary statement; data in FIG. 11. Here is the method: as §1, §3
The levels of hepcidin, ferritin and ferroportin were measured in the four groups of mice according to standard procedures as described, for example, in An-Sheng Zhang et al. “Suppression of hepatic hepcidin expression in response to acute iron deprivation is associated with an increase of matriptase-2 protein”, Blood. Feb. 3, 2011; 117(5):1687-1699).

The values that follow come from patent US10314814B2, “Composition comprising 7-hydroxymatairesinol” (LINNEA S.A., priority 2014, dated 2019).

For the compound `COc1cc(CC2C(=O)OCC2C(O)c2ccc(O)c(OC)c2)ccc1O` (stereo not drawn) [HMR, 7-hydroxymatairesinol], the obesity entry in test [1] is on record as “able to reduce”. For the same compound, in test [2] (epidydimal adipose tissue, high fat diet, 60 days, daily gavage, HMR 3 mg/kg/day, TEP 10 mg/kg/day, HF control 20832, LF 9275, data only indicative, group 3 vs group 2 statistically different), the “Average area (adipocyte)” value was determined as 18478 μm^2. In [2] (summary statement), the “number and area of adipocytes” value was “able to reduce”. The “Liver histology (steatosis)” value in test [3] is given as “some vacuoles, much less than group 2”. In addition, the glycaemia result in test [4] was “able to reduce”. Also, in test [5] (HF control 6.97, LF 0.69), the “IR: Insulin resistance” value was 2.04. Further, the “% S: Insulin sensitivity” value in [5] (HF control 15.0, LF 121.0) was 31.9. Besides, in test [5] (HF control 101.0, LF 64.4), the “% B: Steady state beta cell function” value was 55.0. Besides, the “cholesterol LDL (LDL) concentration in blood” value in test [6] (high fat diet, 60 days, HF control 56, LF 18) was found to be 51. Moreover, the “cholesterol HDL (HDL) concentration in blood” value in test [6] (high fat diet, 60 days, HF control 133, LF 79) is recorded as 129. Besides, in test [6] (high fat diet, 60 days, HF control 153, LF 88), the “triglycerides (TG) concentration in blood” value stood at 140. Besides, the “cholesterol (Total) concentration in blood” value in [6] (high fat diet, 60 days, HMR 3 mg/kg/day, TEP 10 mg/kg/day, HF control 220, LF 114) is reported as 209. In test [6] (summary statement), the dyslipidemia result is “able to reduce”. In addition, the “concentration of pro-inflammatory cytokines in the epidydimal adipose tissue and liver” value in [7] is reported as “reduce”. The “regulation of genes of the lipid metabolism in the epidydimal adipose tissue (ATGL mRNA, PLA2g7 gene, LPL gene)” value in [8] is reported as “able to contribute to the regulation”. Moreover, in [9], the “regulation of genes of the lipid metabolism in the liver (PPARg gene, TFEB gene)” value is “able to contribute to the regulation”. In addition, the cellular oxidative stress result in test [10] was “able to reduce”. The iron metabolism result in test [11] is listed as “regulate”.
